Data on 11 compounds can be found in US20260022142A1, “MACROCYCLIC IMMUNOMODULATORS” (Bristol-Myers Squibb Company, priority 2022, published 2026).

Numbered stars: 1 amine (or outer) side, 2 acyl side, 3 side chain; on linkers, the order of the positions; unused ones are H or OH. Bridge positions count the residues as written; N and C are the ends. Square brackets hold non-standard residues; d marks the D form. Peptide text beside a SMILES is read from it. * marks the point of attachment. ξ: configuration not given here. Phe(4-COOH) = N[C@@H](Cc1ccc(C(=O)O)cc1)C(=O)O; Bip = N[C@@H](Cc1ccc(-c2ccccc2)cc1)C(=O)O; X18 = O=C(C(CC1CCC(F)(F)CC1)N[*:1])[*:2]; Phe(3-Me) = Cc1cccc(C[C@H](N)C(=O)O)c1; X5 = CC(C)(CCN)[C@H](N[*:1])C(=O)[*:2]; NH(CH2)12COOH = O=C(O)CCCCCCCCCCCCN*; X4 = O=C([C@@H](N[*:1])C1CNC1)[*:2]; Val(3-OH) = CC(C)(O)[C@H](N)C(=O)O; X15 = C[C@H](N)C(N[*:1])C(=O)[*:2]; X17 = O=C(C(CN1CCOCC1)N[*:1])[*:2]; 4Pal = N[C@@H](Cc1ccncc1)C(=O)O; ξVal(3-OH) = CC(C)(O)C(N)C(=O)O; Aad = N[C@@H](CCCC(=O)O)C(=O)O; Cha = N[C@@H](CC1CCCCC1)C(=O)O; Carboxymethyl = O=C(O)C*; Orn = NCCC[C@H](N)C(=O)O; Aun = NCCCCCCCCCCC(=O)O; Dab = NCC[C@H](N)C(=O)O; Nva = CCC[C@H](N)C(=O)O; AEEA = NCCOCCOCC(=O)O

Usually IC50 stands for the midpoint of a concentration-inhibition curve.

T1 sequence (Q15116 25-288): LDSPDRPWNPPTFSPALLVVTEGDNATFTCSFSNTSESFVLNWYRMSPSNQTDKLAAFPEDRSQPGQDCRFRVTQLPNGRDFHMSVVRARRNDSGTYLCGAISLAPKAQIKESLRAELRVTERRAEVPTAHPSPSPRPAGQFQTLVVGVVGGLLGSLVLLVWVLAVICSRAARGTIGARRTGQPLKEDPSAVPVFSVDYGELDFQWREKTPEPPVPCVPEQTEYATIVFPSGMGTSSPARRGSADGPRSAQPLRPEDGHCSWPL

The assay has as its target T1, PD-1/PD-L1 interaction (PE-labeled human PD-L1-Ig binding to Jurkat cell line over-expressing human PD-1) (Homo sapiens, UniProt Q15116).
T1 construct: expressed in transfected cells; host or cells: Jurkat
Nature of the assay: Jurkat-PD-1 Cell Binding High-Content Screening Assay (CBA). It counts as cell-based. As to conditions: Jurkat cell line over-expressing human PD-1; PE-labeled PD-L1-Ig 20 nM final; read-out: Jurkat hPD1-PDL1 IC50. The gist of the method: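 Read-out is high-content imaging of cell-bound phycoerythrin-tagged PD-L1-Ig on fixed, Hoechst-counterstained Jurkat cells that over-express human PD-1. Compound exposure lasts 2 h at 37° C before the labeled ligand (20 nM final) is added for a further hour.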
On to `Cc1cccc(C[C@@H]2NC(=O)[C@H](CC(=O)O)NC(=O)[C@H](Cc3ccc(O)cc3)NC(=O)[C@H]([C@@H](C)O)NC(=O)CSC[C@@H](C(=O)N[C@@H](CCN)C(=O)NCCOCCOCC(=O)NCCCCCCCCCCCCC(=O)O)NC(=O)[C@H](CO)NC(=O)[C@H](C(C)(C)O)NC(=O)[C@H](CC3CCCCC3)NC(=O)[C@H](CCN)NC(=O)[C@@H](CC(C)C)NC(=O)[C@H](CCCN)NC(=O)[C@H](Cc3ccc(OCC(=O)O)cc3)NC(=O)[C@H](Cc3ccc(-c4ccccc4)cc3)NC(=O)[C@H](Cc3ccc(OCC(=O)O)cc3)NC2=O)c1` [Compound 2250] ({CH2CO}-TYD[Phe(3-Me)]Y(Carboxymethyl)[Bip]Y(Carboxymethyl)[Orn][dL][Dab][Cha][Val(3-OH)]SC[Dab][AEEA]-{NH(CH2)12COOH}; thioether N-14), for which the half-maximal inhibitory concentration (IC50) was determined as 0.018 µM. Consider `Cc1cccc(C[C@@H]2NC(=O)[C@H](CC(=O)O)NC(=O)[C@H](Cc3ccc(OCC(=O)O)cc3)NC(=O)[C@H](Cc3ccncc3)NC(=O)CSC[C@@H](C(=O)N[C@@H](CCN)C(=O)NCCOCCOCC(=O)NCCCCCCCCCCCCC(=O)O)NC(=O)[C@H](CO)NC(=O)[C@H](C(C)(C)O)NC(=O)[C@H](CC3CCCCC3)NC(=O)[C@H](CCN)NC(=O)[C@@H](CC(C)C)NC(=O)[C@H](CCCN)NC(=O)[C@H](Cc3ccc(OCC(=O)O)cc3)NC(=O)[C@H](Cc3ccc(-c4ccccc4)cc3)NC(=O)[C@H](Cc3ccc(OCC(=O)O)cc3)NC2=O)c1` [Compound 2251] ({CH2CO}-[4Pal]Y(Carboxymethyl)D[Phe(3-Me)]Y(Carboxymethyl)[Bip]Y(Carboxymethyl)[Orn][dL][Dab][Cha][Val(3-OH)]SC[Dab][AEEA]-{NH(CH2)12COOH}; thioether N-14), for which the IC50 came to 0.0105 µM. Regarding `CCC[C@@H]1NC(=O)CSC[C@@H](C(=O)N[C@@H](CCN)C(=O)NCCOCCOCC(=O)NCCCCCCCCCCCCC(=O)O)NC(=O)[C@H](CO)NC(=O)C(C(C)(C)O)NC(=O)[C@H](CC2CCCCC2)NC(=O)[C@H](CCN)NC(=O)[C@@H](CC(C)C)NC(=O)[C@H](CCCN)NC(=O)[C@H](Cc2ccc(OCC(=O)O)cc2)NC(=O)[C@H](Cc2ccc(-c3ccccc3)cc2)NC(=O)[C@H](Cc2ccc(OCC(=O)O)cc2)NC(=O)[C@H](Cc2cccc(C)c2)NC(=O)[C@H](CC(=O)O)NC(=O)[C@H](Cc2ccc(OCC(=O)O)cc2)NC1=O` (stereo partly drawn) [Compound 2252] ({CH2CO}-[Nva]Y(Carboxymethyl)D[Phe(3-Me)]Y(Carboxymethyl)[Bip]Y(Carboxymethyl)[Orn][dL][Dab][Cha][ξVal(3-OH)]SC[Dab][AEEA]-{NH(CH2)12COOH}; thioether N-14), the concentration for half-maximal inhibition (IC50) stood at 0.0135 µM. As for `Cc1cccc(C[C@@H]2NC(=O)[C@H](CC(=O)O)NC(=O)[C@H](Cc3ccc(OCC(=O)O)cc3)NC(=O)[C@H](CCCNC(=N)N)NC(=O)CSC[C@@H](C(=O)N[C@@H](CCN)C(=O)NCCOCCOCC(=O)NCCCCCCCCCCCCC(=O)O)NC(=O)[C@H](CO)NC(=O)[C@H](C(C)(C)O)NC(=O)[C@H](CC3CCCCC3)NC(=O)[C@H](CCN)NC(=O)[C@@H](CC(C)C)NC(=O)[C@H](CCCN)NC(=O)[C@H](Cc3ccc(OCC(=O)O)cc3)NC(=O)[C@H](Cc3ccc(-c4ccccc4)cc3)NC(=O)[C@H](Cc3ccc(OCC(=O)O)cc3)NC2=O)c1` [Compound 2253] ({CH2CO}-RY(Carboxymethyl)D[Phe(3-Me)]Y(Carboxymethyl)[Bip]Y(Carboxymethyl)[Orn][dL][Dab][Cha][Val(3-OH)]SC[Dab][AEEA]-{NH(CH2)12COOH}; thioether N-14), the half-maximal inhibitory concentration (IC50) was 0.0091 µM.

Turning to `CCC[C@@H]1NC(=O)CSC[C@@H](C(=O)N[C@@H](CCN)C(=O)NCCOCCOCC(=O)NCCCCCCCCCCCCC(=O)O)NC(=O)[C@H](CO)NC(=O)[C@H](C(C)(C)O)NC(=O)[C@H](CC2CCCCC2)NC(=O)[C@H](CCN)NC(=O)[C@@H](CC(C)C)NC(=O)[C@H](CCCN)NC(=O)[C@H](Cc2ccc(OCC(=O)O)cc2)NC(=O)[C@H](Cc2ccc(-c3ccccc3)cc2)NC(=O)[C@H](Cc2ccc(OCC(=O)O)cc2)NC(=O)[C@H](Cc2cccc(C)c2)NC(=O)[C@H](CC(=O)O)NC(=O)[C@H](Cc2ccc(C(=O)O)cc2)NC1=O` [Compound 2254] ({CH2CO}-[Nva][Phe(4-COOH)]D[Phe(3-Me)]Y(Carboxymethyl)[Bip]Y(Carboxymethyl)[Orn][dL][Dab][Cha][Val(3-OH)]SC[Dab][AEEA]-{NH(CH2)12COOH}; thioether N-14), the concentration for half-maximal inhibition (IC50) is 0.0101 µM. With `Cc1cccc(C[C@@H]2NC(=O)[C@H](CC(=O)O)NC(=O)[C@H](Cc3ccc(OCC(=O)O)cc3)NC(=O)[C@H](C3CNC3)NC(=O)CSC[C@@H](C(=O)N[C@@H](CCN)C(=O)NCCCCCCCCCCCCC(=O)O)NC(=O)[C@H](CO)NC(=O)[C@H](C(C)(C)O)NC(=O)[C@H](CC3CCCCC3)NC(=O)[C@H](CCN)NC(=O)[C@@H](CC(C)C)NC(=O)[C@H](CCCN)NC(=O)[C@H](Cc3ccc(OCC(=O)O)cc3)NC(=O)[C@H](Cc3ccc(-c4ccccc4)cc3)NC(=O)[C@H](Cc3ccc(OCC(=O)O)cc3)NC2=O)c1` [Compound 2256] ({CH2CO}-[X4]Y(Carboxymethyl)D[Phe(3-Me)]Y(Carboxymethyl)[Bip]Y(Carboxymethyl)[Orn][dL][Dab][Cha][Val(3-OH)]SC[Dab]-{NH(CH2)12COOH}; thioether N-14) the figure was 0.0136 µM; with `Cc1cccc(C[C@@H]2NC(=O)[C@H](CC(=O)O)NC(=O)[C@H](Cc3ccc(OCC(=O)O)cc3)NC(=O)C([C@H](C)N)NC(=O)CSC[C@@H](C(=O)N[C@@H](CCN)C(=O)NCCCCCCCCCCCCC(=O)O)NC(=O)[C@H](CO)NC(=O)[C@H](C(C)(C)O)NC(=O)[C@H](CC3CCCCC3)NC(=O)[C@H](CCN)NC(=O)[C@@H](CC(C)C)NC(=O)[C@H](CCCN)NC(=O)[C@H](Cc3ccc(OCC(=O)O)cc3)NC(=O)[C@H](Cc3ccc(-c4ccccc4)cc3)NC(=O)[C@H](Cc3ccc(OCC(=O)O)cc3)NC2=O)c1` (stereo partly drawn) [Compound 2257] ({CH2CO}-[X15]Y(Carboxymethyl)D[Phe(3-Me)]Y(Carboxymethyl)[Bip]Y(Carboxymethyl)[Orn][dL][Dab][Cha][Val(3-OH)]SC[Dab]-{NH(CH2)12COOH}; thioether N-14), 0.0111 µM. `Cc1cccc(C[C@@H]2NC(=O)[C@H](CC(=O)O)NC(=O)[C@H](Cc3ccc(OCC(=O)O)cc3)NC(=O)C(CC3CCC(F)(F)CC3)NC(=O)CSC[C@@H](C(=O)N[C@@H](CCN)C(=O)NCCCCCCCCCCCCC(=O)O)NC(=O)[C@H](CO)NC(=O)[C@H](C(C)(C)O)NC(=O)[C@H](CC3CCCCC3)NC(=O)[C@H](CCN)NC(=O)[C@@H](CC(C)C)NC(=O)[C@H](CCCN)NC(=O)[C@H](Cc3ccc(OCC(=O)O)cc3)NC(=O)[C@H](Cc3ccc(-c4ccccc4)cc3)NC(=O)[C@H](Cc3ccc(OCC(=O)O)cc3)NC2=O)c1` (stereo partly drawn) [Compound 2258] ({CH2CO}-[X18]Y(Carboxymethyl)D[Phe(3-Me)]Y(Carboxymethyl)[Bip]Y(Carboxymethyl)[Orn][dL][Dab][Cha][Val(3-OH)]SC[Dab]-{NH(CH2)12COOH}; thioether N-14): the 50% inhibitory concentration (IC50) turned out to be 0.0489 µM. Consider `Cc1cccc(C[C@@H]2NC(=O)[C@H](CC(=O)O)NC(=O)[C@H](Cc3ccc(OCC(=O)O)cc3)NC(=O)[C@H](CCCC(=O)O)NC(=O)CSC[C@@H](C(=O)N[C@@H](CCN)C(=O)NCCCCCCCCCCCCC(=O)O)NC(=O)[C@H](CO)NC(=O)[C@H](C(C)(C)O)NC(=O)[C@H](CC3CCCCC3)NC(=O)[C@H](CCN)NC(=O)[C@@H](CC(C)C)NC(=O)[C@H](CCCN)NC(=O)[C@H](Cc3ccc(OCC(=O)O)cc3)NC(=O)[C@H](Cc3ccc(-c4ccccc4)cc3)NC(=O)[C@H](Cc3ccc(OCC(=O)O)cc3)NC2=O)c1` [Compound 2259] ({CH2CO}-[Aad]Y(Carboxymethyl)D[Phe(3-Me)]Y(Carboxymethyl)[Bip]Y(Carboxymethyl)[Orn][dL][Dab][Cha][Val(3-OH)]SC[Dab]-{NH(CH2)12COOH}; thioether N-14), for which the IC50 was 0.0179 µM.

On to `Cc1cccc(C[C@@H]2NC(=O)[C@H](CC(=O)O)NC(=O)[C@H](Cc3ccc(OCC(=O)O)cc3)NC(=O)C(CN3CCOCC3)NC(=O)CSC[C@@H](C(=O)N[C@@H](CCN)C(=O)NCCCCCCCCCCCCC(=O)O)NC(=O)[C@H](CO)NC(=O)[C@H](C(C)(C)O)NC(=O)[C@H](CC3CCCCC3)NC(=O)[C@H](CCN)NC(=O)[C@@H](CC(C)C)NC(=O)[C@H](CCCN)NC(=O)[C@H](Cc3ccc(OCC(=O)O)cc3)NC(=O)[C@H](Cc3ccc(-c4ccccc4)cc3)NC(=O)[C@H](Cc3ccc(OCC(=O)O)cc3)NC2=O)c1` (stereo partly drawn) [Compound 2260] ({CH2CO}-[X17]Y(Carboxymethyl)D[Phe(3-Me)]Y(Carboxymethyl)[Bip]Y(Carboxymethyl)[Orn][dL][Dab][Cha][Val(3-OH)]SC[Dab]-{NH(CH2)12COOH}; thioether N-14), for which the concentration for half-maximal inhibition (IC50) amounted to 0.0094 µM. As to `Cc1cccc(C[C@@H]2NC(=O)[C@H](CC(=O)O)NC(=O)[C@H](Cc3ccc(OCC(=O)O)cc3)NC(=O)[C@H](CCN)NC(=O)CSC[C@@H](C(=O)N[C@H](C(=O)NCCCCCCCCCCC(=O)O)C(C)(C)CCN)NC(=O)[C@H](CO)NC(=O)[C@H](C(C)(C)O)NC(=O)[C@H](CC3CCCCC3)NC(=O)[C@H](CCN)NC(=O)[C@@H](CC(C)C)NC(=O)[C@H](CCCN)NC(=O)[C@H](Cc3ccc(OCC(=O)O)cc3)NC(=O)[C@H](Cc3ccc(-c4ccccc4)cc3)NC(=O)[C@H](Cc3ccc(OCC(=O)O)cc3)NC2=O)c1` [Compound 2261] ({CH2CO}-[Dab]Y(Carboxymethyl)D[Phe(3-Me)]Y(Carboxymethyl)[Bip]Y(Carboxymethyl)[Orn][dL][Dab][Cha][Val(3-OH)]SC[X5][Aun]-OH; thioether N-14), the concentration for half-maximal inhibition (IC50) was 0.207 µM.
